Laboratory results published in patent US11180481B2, “Oxopiperazine helix mimetics as inhibitors of the p53-MDM2 interaction” (NEW YORK UNIVERSITY, priority 2014, dated 2021).
Read-outs that look alike come from different tables or passages of the source.

Target: T1, N-terminal His6-tagged Mdm225-117 (Homo sapiens, UniProt Q00987)
T1 construct: 25-117 fusion protein; made in house; host or cells: E. coli BL21 DE3 pLySS, pET-14B vector
Assay: Fluorescence polarization competitive binding assay with fluorescein labeled p53 peptide (Flu-p53)
Conditions: for fold decrease in binding affinity: relative to 18 (3-chloro-phenylalanine at R1)
Experimental: The relative affinities of peptides for N-terminal His6-tagged Mdm225-117 were determined using fluorescence polarization based competitive binding assay with fluorescein labeled p53 peptide, Flu-p53. The polarization experiments were performed with a DTX 880 Multimode Detector (Beckman) at 25° C., with excitation and emission wavelengths at 485 nm and 535 nm, respectively. All samples were prepared in 96 well plates in 0.1% pluronic F-68 (Sigma).
For competition binding experiments, a solution of 250 nM Mdm2 and 15 nM Flu-p53 in buffer (10 mM PBS pH 7.4, 5 mM EDTA, 0.5 mM DTT, 0.1% pluronic F-68) was incubated at 25° C. in a 96 well plate. After 30 minutes, appropriate concentrations of the oxopiperazine (1 nM-100 μM) were added to the Mdm2-Flu-p53 mixture and the resulting mixtures were incubated at 25° C. for 1 hour before measuring the degree of dissociation of Flu-p53 by polarization. The EC50 was fit into equation (2) to calculate the Ki value of the oxopiperazine. Ki=KD1*FSB*((LT/(LST*FSB2−(KD1+LST+RT)*FSB+RT))−1(1−FSB)) (2)
where: • KD=KD of fluorescent probe Flu-p53 • RT=Total concentration of Mdm2 protein • LST=total concentration of p53 fluorescent peptide • FSB=Fraction of bound […] (at EC50) • LT=total concentration of oxopiperazine (EC50)
The binding affinity (KD) values reported for each peptide are the averages of 3-5 individual experiments, and were determined by fitting the experimental data to a sigmoidal dose-response nonlinear regression model on GraphPad Prism 5.0 (Roehrl et al., Biochemistry 43:16056 (2004), which is hereby incorporated by reference in its entirety).
A previously-described fluorescence polarization competition assay with a fluorescein-labeled p53 peptide was utilized to probe the binding affinity of the mimetics (Henchey et al., ChemBiochem 11:2104 (2010); Knight et al., Anal. Biochem. 300:230 (2002), each of which is hereby incorporated by reference in its entirety). […] To examine the effect of the R3 position on the binding properties, a series of compounds was designed in which this position was changed to hydrophobic, anionic, or cationic residues. These studies were performed in the context of the dimers (1-4) as well as oxopiperazine monomers linked to uncyclized dipeptides (see Table 4, supra). […] Importantly, comparisons of dimers 3 (FWLL) and 4 (FWFL) with the monomer-dipeptide sequences 11 and 12 support the hypothesis that cyclization of dipeptides in oxopiperazine rings provides a significant boost to the ability of these helix mimetics to target protein pockets Ramachandran Plots (Ramachandran & Sasisekharan, Adv. Protein Chem. 23:283 (1968), which is hereby incorporated by reference in its entirety) obtained from quantum mechanical calculations further illustrate the flexibility of the uncyclized derivative (FIGS. 9C-D) as compared to the cyclic dimer (FIGS. 9A-B).

[1] = Table 3, oxopiperazine dimers, competitive fluorescence polarization assay, read-out: Kd (μM), binding affinity for Mdm2
[2] = Table 5, restated by sequence, read-out: Experimental Kd
[3] = Table 6, computationally predicted dimers, competitive fluorescence polarization assay, read-out: Kd (μM), binding affinity for Mdm2

CC(C)C[C@@H](C(=O)O)N1CCN(C(=O)[C@H](Cc2c[nH]c3ccccc23)N2CCN[C@@H](Cc3ccccc3)C2=O)[C@@H](C)C1=O [Mimetic 1, FWAL-OH]
Kd [1]: 65.4 ± 0.28 µM
Kd (oxopiperazine trimers, method not stated, read-out: Kd2): 3.1 ± 2.4 µM
Kd (read-out: dissociation constant, Kd): 65 µM

CC(C)C[C@@H](C(=O)O)N1CCN(C(=O)[C@H](Cc2c[nH]c3ccccc23)N2CCN[C@@H](Cc3ccccc3)C2=O)[C@@H](CCCCN)C1=O [Mimetic 2, FWKL-OH]
binding to Mdm2, in words: appreciably lower affinity

CC(C)C[C@@H](C(N)=O)N1CCN(C(=O)[C@H](Cc2c[nH]c3ccccc23)N2CCN[C@@H](Cc3ccccc3)C2=O)[C@@H](Cc2ccccc2)C1=O [Mimetic 5, FWFL-NH2]
Kd [1]: 2.88 ± 0.12 µM

NCCCC[C@@H](C(N)=O)N1CCN(C(=O)[C@H](Cc2c[nH]c3ccccc23)N2CCN[C@@H](Cc3ccccc3)C2=O)[C@@H](Cc2ccccc2)C1=O [Mimetic 6, FWFK-NH2]
binding to Mdm2, in words: rather poor binder

CC(C)C[C@@H](C(N)=O)N1CCN(C(=O)[C@H](Cc2c[nH]c3ccccc23)N2CCN[C@@H](CCCCN)C2=O)[C@@H](Cc2ccccc2)C1=O [Mimetic 7, KWFL-NH2]
binding to Mdm2, in words: poor binder

CC(C)C[C@@H](C(N)=O)N1CCN(C(=O)[C@H](C)N2CCN[C@@H](Cc3ccccc3)C2=O)[C@@H](Cc2ccccc2)C1=O [Mimetic 8, FAFL-NH2]
Kd [1]: 63.9 ± 6.8 µM

CCCC[C@@H](C(N)=O)N1CCN(C(=O)[C@H](Cc2c[nH]c3ccccc23)N2CCN[C@@H](Cc3ccccc3)C2=O)[C@@H](Cc2ccccc2)C1=O [Mimetic 13, FWF(Nle)-NH2]
Kd [2]: 2.46 µM

CC(C)C[C@@H](C(N)=O)N1CCN(C(=O)[C@H](Cc2c[nH]c3ccccc23)N2CCN[C@@H](Cc3cccc4ccccc34)C2=O)[C@@H](Cc2ccccc2)C1=O [Mimetic 15, (Nap)WFL-NH2]
Kd [2]: 0.85 µM
fold higher affinity than 5 (relative to mimetic 5): three-fold higher affinity

CC(C)C[C@@H](C(N)=O)N1CCN(C(=O)[C@H](Cc2c[nH]c3ccccc23)N2CCN[C@@H](Cc3ccc(O)cc3)C2=O)[C@@H](Cc2ccccc2)C1=O [Mimetic 16, YWFL-NH2]
Kd [2]: 0.4 µM
Kd (read-out: ligand for Mdm2 (affinity)): 0.4 µM

COc1ccc(C[C@@H]2NCCN([C@@H](Cc3c[nH]c4ccccc34)C(=O)N3CCN([C@@H](CC(C)C)C(N)=O)C(=O)[C@@H]3Cc3ccccc3)C2=O)cc1 [Mimetic 17, Y(O—Me)WFL-NH2]
binding to Mdm2, in words: slightly better than 16
Kd [3]: 0.32 ± 0.01 µM

CC(C)C[C@@H](C(N)=O)N1CCN(C(=O)[C@H](Cc2c[nH]c3ccccc23)N2CCN[C@@H](Cc3cccc(Cl)c3)C2=O)[C@@H](Cc2ccccc2)C1=O [Mimetic 18, F(3-Cl)WFL-NH2]
binding to Mdm2, in words: slightly better than 16
Kd [2]: 0.33 µM

Cc1cccc(C[C@@H]2NCCN([C@@H](Cc3c[nH]c4ccccc34)C(=O)N3CCN([C@@H](CC(C)C)C(N)=O)C(=O)[C@@H]3Cc3ccccc3)C2=O)c1 [Mimetic 19, F(3-Me)WFL-NH2]
Kd [2]: 2.6 µM
fold decrease in binding affinity: 8 fold

CC(C)C[C@@H](C(N)=O)N1CCN(C(=O)[C@H](Cc2c[nH]c3ccccc23)N2CCN[C@@H](Cc3ccc(Cl)cc3)C2=O)[C@@H](Cc2ccccc2)C1=O [Mimetic 20, F(4-Cl)WFL-NH2]
Kd [3]: 1.29 ± 0.06 µM
fold decrease in binding affinity: 4 fold
